How the values were obtained:
Assay type in all cases: in vivo
rice (Oryza sativa) = test: Test B flooded paddy test; settings: for Plant response rating, Flood, Rice: 250 g ai/ha, flooded paddy test, visual rating on 0 to 100 scale (0 no effect, 100 complete control) after 13 to 15 days; for Plant response rating, Rice: Flood (flooded paddy test), 13 to 15 days
How it was run: (§1)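 Rice, umbrella sedge, ducksalad and barnyardgrass were grown to the 2-leaf stage, flooded to 3 cm, and compound was applied directly to the paddy water, with that depth kept throughout. After 13 to 15 days in the greenhouse, plants were visually rated against controls on a 0 (no effect) to 100 (complete control) scale.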

[1] = tested on: ducksalad (Heteranthera limosa); test: Test B flooded paddy test; settings: for Plant response rating, Flood, Ducksalad: 250 g ai/ha, flooded paddy test, visual rating on 0 to 100 scale (0 no effect, 100 complete control) after 13 to 15 days; for Plant response rating, Ducksalad: Flood (flooded paddy test), 13 to 15 days
How it was run: as §1

[2] = tested on: umbrella sedge (Cyperus difformis); test: Test B flooded paddy test; settings: for Plant response rating, Flood, Sedge, Umbrella: 250 g ai/ha, flooded paddy test, visual rating on 0 to 100 scale (0 no effect, 100 complete control) after 13 to 15 days; for Plant response rating, Sedge, Umbrella: Flood (flooded paddy test), 13 to 15 days
How it was run: as §1

[3] = tested on: barnyardgrass (Echinochloa crus-galli); test: Test B flooded paddy test; settings: for Plant response rating, Flood, Barnyardgrass: 250 g ai/ha, flooded paddy test, visual rating on 0 to 100 scale (0 no effect, 100 complete control) after 13 to 15 days; for Plant response rating, Barnyardgrass: Flood (flooded paddy test), 13 to 15 days
How it was run: as §1

[4] = tested on: pigweed (Amaranthus retroflexus); test: Test A pre-/postemergence plant response
How it was run: (§2)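 Greenhouse trial, ~10 days. Soil (loam/sand) sprayed preemergence after seeding; emerged plants (1–2 leaf, 2–10 cm) sprayed postemergence in parallel. Response = visual injury vs untreated control, 0–100.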

[5] = tested on: morningglory (Ipomoea spp.); test: Test A pre-/postemergence plant response
How it was run: as §2

[6] = tested on: velvetleaf (Abutilon theophrasti); test: Test A pre-/postemergence plant response
How it was run: as §2

[7] = tested on: wheat (Triticum aestivum); test: Test A pre-/postemergence plant response
How it was run: as §2

[8] = tested on: large crabgrass (Digitaria sanguinalis); test: Test A pre-/postemergence plant response; settings: for Crabgrass, Large plant response rating: visual injury, 0 to 100 scale (0 no effect, 100 complete control), approx. ten days
How it was run: as §2

[9] = tested on: giant foxtail (Setaria faberii); test: Test A pre-/postemergence plant response
How it was run: as §2

corn (Zea mays) = test: Test A pre-/postemergence plant response; settings: for Corn plant response rating: visual injury, 0 to 100 scale (0 no effect, 100 complete control), approx. ten days
How it was run: as §2

[10] = tested on: barnyardgrass (Echinochloa crus-galli); test: Test A pre-/postemergence plant response; settings: for Barnyardgrass plant response rating: visual injury, 0 to 100 scale (0 no effect, 100 complete control), approx. ten days
How it was run: as §2

[11] = 62 g ai/ha, scale of 0 to 100 where 0 is no effect and 100 is complete control
[12] = 125 g ai/ha, scale 0 to 100, 0 is no effect, 100 is complete control
[13] = Flood, 31 g ai/ha, scale 0 to 100 (0 no effect, 100 complete control)
[14] = Postemergence, 125 g ai/ha, visual injury, 0 to 100 scale (0 no effect, 100 complete control), approx. ten days
[15] = Postemergence, 500 g ai/ha, visual injury, 0 to 100 scale (0 no effect, 100 complete control), approx. ten days
[16] = Preemergence, 125 g ai/ha, 0 to 100 scale where 0 is no effect and 100 is complete control, approximately ten days
[17] = Preemergence, 500 g ai/ha, 0 to 100 scale, 0 = no effect, 100 = complete control
[18] = Postemergence, 125 g ai/ha, 0 to 100 scale where 0 is no effect and 100 is complete control

O=C(C1=C(O)C2CCC(C2)C1=O)c1cnc(-c2cc(F)c(F)c(F)c2)n(C2CCCCC2)c1=O (stereo not shown) [Compound 251]
Plant response rating, Flood, Rice (rice (Oryza sativa)): 10 | Plant response rating, Rice (rice (Oryza sativa); [11]): 0 | Plant response rating, Rice (rice (Oryza sativa); [12]): 0 | Rice plant response rating (rice (Oryza sativa); [13]): 0 | Plant response rating, Flood, Ducksalad [1]: 80 | Plant response rating, Ducksalad [1, 11]: 0 | Plant response rating, Ducksalad [1, 12]: 50 | Ducksalad plant response rating [1, 13]: 0 | Plant response rating, Flood, Sedge, Umbrella [2]: 75 | Plant response rating, Sedge, Umbrella [2, 11]: 50 | Plant response rating, Sedge, Umbrella [2, 12]: 65 | Sedge, Umbrella plant response rating [2, 13]: 0 | Plant response rating, Flood, Barnyardgrass [3]: 20 | Plant response rating, Barnyardgrass [3, 11]: 0 | Plant response rating, Barnyardgrass [3, 12]: 0 | Barnyardgrass plant response rating [3, 13]: 0 | Plant response rating, Pigweed [4, 14]: 70 | Pigweed plant response rating [4, 15]: 80 | Plant response rating, Pigweed [4, 16]: 0 | Plant response rating, Pigweed [4, 17]: 60 | Plant response rating, Morningglory [5, 14]: 100 | Morningglory plant response rating [5, 15]: 100 | Plant response rating, Morningglory [5, 16]: 0 | Plant response rating, Morningglory [5, 17]: 40 | Plant response rating, Velvetleaf [6, 14]: 100 | Velvetleaf plant response rating [6, 15]: 100 | Plant response rating, Velvetleaf [6, 16]: 50 | Plant response rating, Velvetleaf [6, 17]: 70 | Plant response rating, Wheat [7, 14]: 0 | Wheat plant response rating [7, 15]: 10 | Plant response rating, Wheat [7, 16]: 0 | Plant response rating, Wheat [7, 17]: 0 | Plant response rating, Crabgrass, Large [8, 18]: 50 | Crabgrass, Large plant response rating ([8]; Postemergence, 500 g ai/ha): 90 | Plant response rating, Crabgrass, Large [8, 16]: 20 | Plant response rating, Crabgrass, Large [8, 17]: 80 | Plant response rating, Foxtail, Giant [9, 14]: 50 | Foxtail, Giant plant response rating [9, 15]: 90 | Plant response rating, Foxtail, Giant [9, 16]: 10 | Plant response rating, Foxtail, Giant [9, 17]: 40 | Plant response rating, Corn (corn (Zea mays); [18]): 0 | Corn plant response rating (corn (Zea mays); Postemergence, 500 g ai/ha): 20 | Plant response rating, Corn (corn (Zea mays); [16]): 0 | Plant response rating, Corn (corn (Zea mays); [17]): 0 | Plant response rating, Barnyardgrass [10, 18]: 80 | Barnyardgrass plant response rating ([10]; Postemergence, 500 g ai/ha): 100 | Plant response rating, Barnyardgrass [10, 16]: 0 | Plant response rating, Barnyardgrass [10, 17]: 20

O=C(C1=C(O)C2CCC(C2)C1=O)c1cnc(-c2cccc(Br)c2)n(C2CCCCC2)c1=O (stereo not shown) [Compound 252]
Plant response rating, Flood, Rice (rice (Oryza sativa)): 0 | Plant response rating, Rice (rice (Oryza sativa); [11]): 0 | Plant response rating, Flood, Ducksalad [1]: 0 | Plant response rating, Ducksalad [1, 11]: 0 | Plant response rating, Flood, Sedge, Umbrella [2]: 0 | Plant response rating, Sedge, Umbrella [2, 11]: 0 | Plant response rating, Flood, Barnyardgrass [3]: 0 | Plant response rating, Barnyardgrass [3, 11]: 0 | Plant response rating, Pigweed [4, 14]: 70 | Pigweed plant response rating [4, 15]: 90 | Plant response rating, Pigweed [4, 16]: 0 | Plant response rating, Pigweed [4, 17]: 40 | Plant response rating, Morningglory [5, 14]: 80 | Morningglory plant response rating [5, 15]: 100 | Plant response rating, Morningglory [5, 16]: 0 | Plant response rating, Morningglory [5, 17]: 10 | Plant response rating, Velvetleaf [6, 14]: 70 | Velvetleaf plant response rating [6, 15]: 90 | Plant response rating, Velvetleaf [6, 16]: 20 | Plant response rating, Velvetleaf [6, 17]: 50 | Plant response rating, Wheat [7, 14]: 0 | Wheat plant response rating [7, 15]: 10 | Plant response rating, Wheat [7, 16]: 0 | Plant response rating, Wheat [7, 17]: 0 | Plant response rating, Crabgrass, Large [8, 18]: 30 | Crabgrass, Large plant response rating ([8]; Postemergence, 500 g ai/ha): 60 | Plant response rating, Crabgrass, Large [8, 16]: 10 | Plant response rating, Crabgrass, Large [8, 17]: 20 | Plant response rating, Foxtail, Giant [9, 14]: 40 | Foxtail, Giant plant response rating [9, 15]: 60 | Plant response rating, Foxtail, Giant [9, 16]: 0 | Plant response rating, Foxtail, Giant [9, 17]: 10 | Plant response rating, Corn (corn (Zea mays); [18]): 0 | Corn plant response rating (corn (Zea mays); Postemergence, 500 g ai/ha): 10 | Plant response rating, Corn (corn (Zea mays); [16]): 0 | Plant response rating, Corn (corn (Zea mays); [17]): 0 | Plant response rating, Barnyardgrass [10, 18]: 80 | Barnyardgrass plant response rating ([10]; Postemergence, 500 g ai/ha): 90 | Plant response rating, Barnyardgrass [10, 16]: 0 | Plant response rating, Barnyardgrass [10, 17]: 0

Reference: patent publication US8952024B2, “Herbicidal pyrimidone derivatives” (E I du Pont de Nemours and Company, priority 2009, dated 2015)
